Assay results from patent US7557136B2, “Pyrrolidine derivatives as oxytocin antagonists” (Laboratoires Serono SA, priority 2003, dated 2009).

biological target: T1, human Oxytocin (hOT) receptor (Homo sapiens, UniProt P30559); assay: In vitro competition binding assay on hOT receptor with scintillation proximity assay ([125I]-OVTA); settings: membranes from HEK293EBNA cells expressing the hOT receptor; 0.2 nM [125I]-OVTA; SPA; read-out: Binding Affinity hOT-R (Ki [nM])
T1 construct: expressed in transfected cells; host or cells: HEK293EBNA (membranes)
T1 sequence (P30559 1-389): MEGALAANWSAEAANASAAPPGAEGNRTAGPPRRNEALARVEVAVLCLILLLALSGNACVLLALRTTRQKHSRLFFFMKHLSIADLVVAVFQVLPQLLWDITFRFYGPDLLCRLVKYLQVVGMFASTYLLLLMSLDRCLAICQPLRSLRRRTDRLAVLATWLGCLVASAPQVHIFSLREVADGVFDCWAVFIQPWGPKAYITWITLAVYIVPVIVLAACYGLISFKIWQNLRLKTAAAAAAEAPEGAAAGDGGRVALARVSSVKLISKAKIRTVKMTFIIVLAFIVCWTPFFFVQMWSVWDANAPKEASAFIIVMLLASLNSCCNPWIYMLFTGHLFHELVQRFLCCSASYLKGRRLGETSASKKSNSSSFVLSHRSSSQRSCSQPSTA
Description: The compounds according to formula (I) may be subjected to the following assays: • a) In Vitro Competition Binding Assay on hOT Receptor with Scintillation Proximity Assay (11).
This assay allows to determine the affinity of the test compounds for the human Oxytocin (hOT) receptor. Membranes from HEK293EBNA (cells expressing the hOT receptor) were suspended in buffer containing 50 mM Tris-HCl, pH 7.4, 5 mM MgCl2 and 0.1% BSA (w/v). The membranes (2-4 μg) were mixed with 0.1 mg SPA bead coated with wheat-germ aglutinin (WGA-PVT-Polyethylene Imine beads from Amersham) and 0.2 nM of the radiolabelled [^125I]-OVTA (OVTA being Ornithin Vasoactive, an analogue of OT for competitive binding experiments). Non-specific binding was determined in the presence of 1 μM Oxytocin. The total assay volume was 100 μl. The plates (Corning® NBS plate) were incubated at room temperature for 30 min and counted on a Mibrobeta® plate scintillation counter. Competitive binding was performed in presence of compounds of formula (I) at the following concentrations: 30 μM, 10 μM, 1 μM, 300 nM, 100 nM, 10 nM, 1 nM, 100 pM, 10 pM. The competitive binding data were analysed using the iterative, nonlinear, curve-fitting program, “Prism” (GraphPad Software, Inc).
The ability of pyrrolidine derivatives of formula (I) to inhibit the binding of ^125I-OVTA to the OT-receptor was assessed using the above described in vitro biological assay. Representative values for some example compounds are given in Table I where the binding affinity of test compounds from the above examples is expressed by the inhibition constant (Ki; nM). From these values, it can be derived that said test compounds according to formula (I) do show a significant binding to the oxytocin receptor.

Ki [nM]	Structure (SMILES)
37	CON=C1C[C@@H](CC(=O)OC)N(C(=O)c2ccc(-c3ccccc3)cc2)C1 [Example 1, methyl [(2S,4EZ)-1-(biphenyl-4-ylcarbonyl)-4-(methoxyimino)pyrrolidin-2-yl]acetate]
142	CON=C1CC(CC(=O)N2CCOCC2)N(C(=O)c2ccc(-c3ccccc3)cc2)C1 [Example 9, (3EZ,5S)-1-(biphenyl-4-ylcarbonyl-5-(2-morpholin-4yl-2-oxoethyl)pyrrolidin-3-one O-methyloxime]
67	CON=C1CC(CC(=O)NC[C@H](O)c2ccccc2)N(C(=O)c2ccc(-c3ccccc3)cc2)C1 (stereo partly drawn) [Example 5]
144	CON=C1CC(CCC(=O)OC)N(C(=O)c2ccc(-c3ccccc3)cc2)C1 [Example 2, methyl 3-[(2R,4EZ)-1-biphenyl-4-ylcarbonyl)-4-(methoxyimino)pyrrolidin-2-yl]propanoate]
77	CON=C1C[C@@H](CCC(=O)NC[C@@H](O)c2ccccc2)N(C(=O)c2ccc(-c3ccccc3)cc2)C1 [Example 6, 3-[(2R,4EZ)-1-(biphenyl-4-ylcarbonyl)-4-(methoxyimino)pyrrolidin-2-yl]-N-[(2S)-2-hydroxy-2-phenylethyl]propanamide]
46	CON=C1C[C@@H](CC(=O)OC2CCCC2)N(C(=O)c2ccc(-c3ccccc3)cc2)C1 [Example 3, cyclopentyl [(2S,4EZ)-1-(biphenyl-4-ylcarbonyl)-4-(methoxyimino)pyrrolidin-2-yl]acetate]
